Results: ChEMBL document CHEMBL4340508, “Synthesis and evaluation of tetrahydroisoquinoline-benzimidazole hybrids as multifunctional agents for the treatment of Alzheimer's disease” (Eur J Med Chem, 2019)
Activity calls are given as the source filed them. No cut-off for these calls is given here.

Key:
[1] = target: Cholinesterase (Homo sapiens) (UniProt P06276); experiment: Inhibition of human serum BuChE at 10 uM using butyrylthiocholine chloride as substrate preincubated for 15 mins followed by substrate addition and measured at 1 min time interval by Ellman's method relative to control
[2] = system: BV-2; experiment: Antineuroinflammatory activity in mouse BV2 cells assessed as inhibition of LPS-induced nitric oxide production pretreated for 30 mins followed by LPS-stimulation for 24 hrs by Griess assay; format: functional, cell-based
[3] = Permeability of the compound in PBS/EtOH at 100 ug/ml after 10 hrs by PAMPA-BBB assay; format: ADME; settings: read-out: permeability
[4] = system: HT-22; experiment: Neuroprotective activity against glutamate-induced cytotoxicity in mouse HT22 cells assessed as cell viability at 5 uM measured after 24 hrs by MTT assay (reference value: 30%); format: functional; settings: HT-22, 24 h, read-out: Activity
[5] = target: Acetylcholinesterase (Homo sapiens) (UniProt P22303); experiment: Inhibition of human erythrocyte AChE at 10 uM using acetylthiocholine chloride as substrate preincubated for 15 mins followed by substrate addition and measured at 1 min time interval by Ellman's method relative to control
[6] = target: Beta-secretase 1 (Homo sapiens, UniProt P56817); experiment: Inhibition of recombinant human BACE1 preincubated with enzyme for 20 mins followed by addition of Rh-EVNLDAEFK-Quencher as substrate measured after 60 mins by FRET assay
[7] = system: HT-22; experiment: Neuroprotective activity against glutamate-induced intracellular oxidative stress in mouse HT22 cells assessed as inhibition of ROS production at 5 uM measured after 12 hrs by DCFH-DA probe based fluorescence method relative to control; format: functional, cell-based
[8] = system: BV-2; experiment: Antineuroinflammatory activity in mouse BV2 cells assessed as decrease in LPS-induced iNOS mRNA expression incubated for 30 mins followed by LPS stimulation for 12 hrs by qPCR method; format: functional, cell-based
[9] = system: BV-2; experiment: Antineuroinflammatory activity in mouse BV2 cells assessed as decrease in LPS-induced TNFalpha expression incubated for 30 mins followed by LPS stimulation for 12 hrs by qPCR method; format: functional, cell-based
[10] = system: BV-2; experiment: Antineuroinflammatory activity in mouse BV2 cells assessed as decrease in LPS-induced IL-1beta expression incubated for 30 mins followed by LPS stimulation for 12 hrs by qPCR method; format: functional, cell-based
[11] = system: BV-2; experiment: Antineuroinflammatory activity in mouse BV2 cells assessed as decrease in LPS-induced iNOS expression incubated for 30 mins followed by LPS stimulation for 16 hrs by Western blot analysis; format: functional, cell-based
[12] = system: BV-2; experiment: Antineuroinflammatory activity in mouse BV2 cells assessed as decrease in LPS-induced secretion of TNFalpha incubated for 30 mins followed by LPS stimulation for 16 hrs by ELISA; format: functional, cell-based
[13] = system: BV-2; experiment: Antineuroinflammatory activity in mouse BV2 cells assessed as decrease in LPS-induced secretion of IL-1beta incubated for 30 mins followed by LPS stimulation for 16 hrs by ELISA; format: functional, cell-based
[14] = system: BV-2; experiment: Neuroprotective activity against glutamate-induced cell damage in […] assessed as change in cell morphology at 5 uM measured after 24 hrs; format: functional, cell-based
[15] = system: HT-22; experiment: Neuroprotective activity against glutamate-induced intracellular oxidative stress in mouse HT22 cells assessed as increase in GSH level at 5 uM measured after 12 hrs relative to control; format: functional, cell-based

Chain of Beta-secretase 1 (P56817 whole entry): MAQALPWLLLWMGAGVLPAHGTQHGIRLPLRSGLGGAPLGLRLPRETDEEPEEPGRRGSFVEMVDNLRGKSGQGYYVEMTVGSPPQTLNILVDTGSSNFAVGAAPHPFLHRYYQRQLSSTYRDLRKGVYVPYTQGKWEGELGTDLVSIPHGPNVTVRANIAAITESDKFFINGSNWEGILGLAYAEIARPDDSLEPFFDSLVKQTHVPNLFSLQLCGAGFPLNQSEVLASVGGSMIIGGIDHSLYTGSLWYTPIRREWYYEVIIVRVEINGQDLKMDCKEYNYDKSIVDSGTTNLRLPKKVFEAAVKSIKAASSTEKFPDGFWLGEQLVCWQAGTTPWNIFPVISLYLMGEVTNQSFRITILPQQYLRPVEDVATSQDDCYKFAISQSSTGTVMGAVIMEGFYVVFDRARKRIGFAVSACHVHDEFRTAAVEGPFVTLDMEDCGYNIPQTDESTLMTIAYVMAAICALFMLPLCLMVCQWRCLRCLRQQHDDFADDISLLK
Chain of Cholinesterase (Homo sapiens) (P06276 whole entry): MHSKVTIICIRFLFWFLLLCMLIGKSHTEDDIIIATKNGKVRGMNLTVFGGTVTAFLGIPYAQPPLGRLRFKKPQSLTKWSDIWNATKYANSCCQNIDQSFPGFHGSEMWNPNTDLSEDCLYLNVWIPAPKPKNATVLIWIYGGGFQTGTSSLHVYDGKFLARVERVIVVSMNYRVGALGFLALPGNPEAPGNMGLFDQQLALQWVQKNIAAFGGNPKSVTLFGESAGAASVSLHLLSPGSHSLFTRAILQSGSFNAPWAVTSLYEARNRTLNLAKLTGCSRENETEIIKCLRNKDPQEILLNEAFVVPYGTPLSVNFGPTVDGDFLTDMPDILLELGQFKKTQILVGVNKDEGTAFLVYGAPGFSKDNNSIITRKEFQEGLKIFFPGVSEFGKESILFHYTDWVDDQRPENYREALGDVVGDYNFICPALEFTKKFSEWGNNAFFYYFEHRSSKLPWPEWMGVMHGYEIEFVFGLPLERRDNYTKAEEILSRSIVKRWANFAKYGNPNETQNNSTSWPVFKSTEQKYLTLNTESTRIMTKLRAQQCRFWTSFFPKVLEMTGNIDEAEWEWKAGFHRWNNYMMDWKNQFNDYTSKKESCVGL
Chain of Acetylcholinesterase (Homo sapiens) (P22303 whole entry): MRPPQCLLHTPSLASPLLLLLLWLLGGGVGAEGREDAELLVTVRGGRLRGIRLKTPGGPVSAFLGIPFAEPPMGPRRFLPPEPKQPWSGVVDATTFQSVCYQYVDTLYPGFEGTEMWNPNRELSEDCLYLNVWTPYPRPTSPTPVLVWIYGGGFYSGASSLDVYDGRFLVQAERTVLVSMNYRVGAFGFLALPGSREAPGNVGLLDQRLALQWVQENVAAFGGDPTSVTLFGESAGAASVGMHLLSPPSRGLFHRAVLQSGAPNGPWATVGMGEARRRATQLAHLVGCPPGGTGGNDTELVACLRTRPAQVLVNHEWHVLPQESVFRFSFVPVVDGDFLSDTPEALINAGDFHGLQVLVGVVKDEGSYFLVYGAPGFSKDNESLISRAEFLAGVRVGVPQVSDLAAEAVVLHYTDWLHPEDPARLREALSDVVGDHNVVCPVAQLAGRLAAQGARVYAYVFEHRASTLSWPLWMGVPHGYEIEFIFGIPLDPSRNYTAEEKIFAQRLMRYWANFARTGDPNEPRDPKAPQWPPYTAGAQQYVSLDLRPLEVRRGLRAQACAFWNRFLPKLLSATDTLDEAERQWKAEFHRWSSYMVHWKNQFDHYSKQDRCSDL

Row | SMILES | inhibition [1] | IC50 [2] | Papp at 10 h, 100 ug/ml [3] | viability at 5 µM [4] | inhibition [5] | also measured
1 | Nc1cccc2nc(-c3cccc(N4CCc5ccccc5C4)c3)[nH]c12 | 25.9% | > 10 µM | 13 ×10⁻⁶ cm/s | 94.9% | 4.8% | 
2 | FC(F)(F)c1ccc2nc(-c3cccc(N4CCc5ccccc5C4)n3)[nH]c2c1 | 18.6% | 9.33 µM | 5.4 ×10⁻⁶ cm/s |  | 20.4% | IC50 [6]: 3.6 µM
3 | Fc1cc2[nH]c(-c3cccc(N4CCc5ccccc5C4)c3)nc2cc1Cl | 0.5% | > 10 µM | 10.1 ×10⁻⁶ cm/s | 48.9% | 10.9% | 
4 | FC(F)(F)c1ccc2nc(-c3cccc(N4CCc5ccccc5C4)c3)[nH]c2c1 | 11.3% | 7.72 µM | 8.7 ×10⁻⁶ cm/s |  | 11.9% | 
5 | COc1ccc2c(c1)CCN(c1cccc(-c3nc4ccc(OC)cc4[nH]3)c1)C2 | 0.3% | > 10 µM | 7.6 ×10⁻⁶ cm/s | 93.1% | 6% | 
6 | CC(C)(C)c1ccc2nc(-c3cccc(N4CCc5ccccc5C4)n3)[nH]c2c1 | 3.8% | > 10 µM |  |  | 24.6% | 
7 | Clc1ccc2nc(-c3cccc(N4CCc5ccccc5C4)n3)[nH]c2c1 | 19.8% | 6.94 µM | 16.7 ×10⁻⁶ cm/s |  | 24.3% | IC50 [6]: 1.8 µM
8 | FC(F)(F)Oc1ccc2nc(-c3cccc(N4CCc5ccccc5C4)n3)[nH]c2c1 | 11.7% | 9.74 µM | 10 ×10⁻⁶ cm/s | 62.1% | 7.6% | IC50 [6]: 1.1 µM
9 | Oc1ccc2nc(-c3cccc(N4CCc5ccccc5C4)c3)[nH]c2c1 | 6.8% | 5.95 µM | 8.6 ×10⁻⁶ cm/s |  | 11.2% | 
10 | COc1ccc2nc(-c3cccc(N4CCc5ccccc5C4)c3)[nH]c2c1 | 5.4% | 8.28 µM | 5.6 ×10⁻⁶ cm/s |  | 10.4% | 
11 | Cc1ccc2nc(-c3cccc(N4CCc5ccccc5C4)c3)[nH]c2c1 | 20.7% | 5.7 µM | 9.6 ×10⁻⁶ cm/s |  | 5% | 
12 | Fc1ccc2nc(-c3cccc(N4CCc5ccccc5C4)n3)[nH]c2c1 | 24.2% | 5.7 µM | 14.5 ×10⁻⁶ cm/s | 67.8% | 6.6% | 
13 | Fc1ccc2nc(-c3cccc(N4CCc5ccccc5C4)c3)[nH]c2c1 | 17.1% | 5.42 µM | 12.6 ×10⁻⁶ cm/s |  | 9.5% | 
14 | Clc1ccc2nc(-c3cccc(N4CCc5ccccc5C4)c3)[nH]c2c1 | 27.6% | > 10 µM | 4.9 ×10⁻⁶ cm/s | 67.6% | 3.4% | IC50 [6]: 1.3 µM
15 | Clc1cc2nc(-c3cccc(N4CCc5ccccc5C4)c3)[nH]c2cc1Cl | 3.7% | 7.93 µM | 9.9 ×10⁻⁶ cm/s |  | 16.2% | 
16 | Fc1ccc2c(c1)CCN(c1cccc(-c3nc4ccc(F)cc4[nH]3)n1)C2 | 33.7% | 6.43 µM | 14 ×10⁻⁶ cm/s | 71.1% | 19.9% | 
17 | Oc1ccc2nc(-c3cccc(N4CCc5ccccc5C4)n3)[nH]c2c1 | 45.6% | 3.8 µM | 13.8 ×10⁻⁶ cm/s | 98.8% | 7.5% | 
18 | COc1ccc2nc(-c3cccc(N4CCc5ccccc5C4)n3)[nH]c2c1 | 35.6% | 5.07 µM | 16.8 ×10⁻⁶ cm/s | 91.8% | 4.5% | inhibition [7]: Active; Activity [8]: Dose-dependent effect; Activity [9]: Dose-dependent effect; Activity [10]: Dose-dependent effect; Activity [11]: Dose-dependent effect; Activity [12]: Dose-dependent effect; Activity [13]: Dose-dependent effect; Activity [14]: Active; Activity [15]: Active
19 | c1cc(-c2nc3ccccc3[nH]2)cc(N2CCc3ccccc3C2)c1 | 18.3% | 6.08 µM | 8.5 ×10⁻⁶ cm/s |  | 6.3% | 
20 | Fc1cc2nc(-c3cccc(N4CCc5ccccc5C4)n3)[nH]c2cc1F | 8.9% | 6.58 µM | 13.9 ×10⁻⁶ cm/s |  | 7.2% | 
21 | COc1ccc2c(c1)CCN(c1cccc(-c3nc4ccc(OC)cc4[nH]3)n1)C2 | 9.7% | > 10 µM | 11.5 ×10⁻⁶ cm/s |  | 4.7% | 
22 | c1cc(-c2nc3ccccc3[nH]2)nc(N2CCc3ccccc3C2)c1 | 23.2% | 7.33 µM | 15.9 ×10⁻⁶ cm/s | 80.3% | 10.1% | 
